Assay in all cases: Weeding effect in post-emergence stage
Assay type in all cases: in vivo
Holding throughout (settings): level of fresh weight growth control rate

Assay [1] concerns Echinochloa crusgalli. In a few lines:
(§1)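 Doses of 500, 250, 125, 60, 30, 15 and 7.5 g/ha, with methyl oleate synergist (1.5 liter/ha) and Tween 80 from acetone solution, applied by spray tower post-emergence (2–3 leaf stage). Weed control scored after 3 further greenhouse weeks, averaged over triplicates.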

Assay [2] deals with Abutilon theophrasti. In a few lines: as §1
In assay [3] the test system is Alopecurus japonicus. In a few lines:
as §1

The subject of assay [4] is Setaria viridis. In outline:
as §1

For assay [5], the system named is Eleusine indica. In a few lines: as §1
The subject of assay [6] is Digitaria sanguinalis. In a few lines:
as §1

Consider `CC(O/N=C/c1cc(-n2c(=O)cc(C(F)(F)F)n(C)c2=O)c(F)cc1Cl)C(=O)OCC1CCCO1` (stereo not drawn) [Compound 264], for which the “Weeding effect in post-emergence stage, Echinochloa crusgalli” value (“Weeding effect … Echinochloa crusgalli” for short) in assay [1] (Dose 15 g/ha) is given as 5 (Level 5: growth control rate is above 85%). In addition, the “Weeding effect in post-emergence stage, Abutilon theophrasti” value (“Weeding effect … Abutilon theophrasti” for short) in assay [2] (Dose 15 g/ha) is reported as 5 (Level 5: growth control rate is above 85%). Further, the “Weeding effect in post-emergence stage, Alopecurus japonicus” value (“Weeding effect … Alopecurus japonicus” below) in assay [3] (Dose 15 g/ha) is reported as 5 (Level 5: growth control rate is above 85%). Further, in assay [4] (Dose 15 g/ha), the “Weeding effect in post-emergence stage, Setaria viridis” value (shortened to “Weeding effect … Setaria viridis”) is 5 (Level 5: growth control rate is above 85%). The “Weeding effect in post-emergence stage, Eleusine indica” value (“Weeding effect … Eleusine indica” below) in assay [5] (Dose 15 g/ha) is given as 5 (Level 5: growth control rate is above 85%). In addition, the “Weeding effect in post-emergence stage, Digitaria sanguinalis” value (from here on “Weeding effect … Digitaria sanguinalis”) in assay [6] (Dose 15 g/ha) is on record as 5 (Level 5: growth control rate is above 85%).

For the compound `CC(O/N=C/c1cc(-n2c(=O)cc(C(F)(F)F)n(C)c2=O)c(F)cc1Cl)C(=O)OCC1OCCO1` (stereo not drawn) [Compound 266], in assay [1] (Dose 30 g/ha), the “Weeding effect … Echinochloa crusgalli” value is listed as 5 (Level 5: growth control rate is above 85%). Besides, the “Weeding effect … Abutilon theophrasti” value in assay [2] (Dose 30 g/ha) was 5 (Level 5: growth control rate is above 85%). Besides, the “Weeding effect … Alopecurus japonicus” value in assay [3] (Dose 30 g/ha) was 5 (Level 5: growth control rate is above 85%). Moreover, the “Weeding effect … Setaria viridis” value in assay [4] (Dose 30 g/ha) was 5 (Level 5: growth control rate is above 85%). The “Weeding effect … Eleusine indica” value in assay [5] (Dose 30 g/ha) is reported as 5 (Level 5: growth control rate is above 85%). The “Weeding effect … Digitaria sanguinalis” value in assay [6] (Dose 30 g/ha) was 5 (Level 5: growth control rate is above 85%).

Regarding `CC(O/N=C/c1cc(-n2c(=O)cc(C(F)(F)F)n(C)c2=O)c(F)cc1Cl)C(=O)OCc1cccs1` (stereo not drawn) [Compound 268], the “Weeding effect … Echinochloa crusgalli” value in assay [1] (Dose 30 g/ha) was 5 (Level 5: growth control rate is above 85%). Besides, the “Weeding effect … Abutilon theophrasti” value in assay [2] (Dose 30 g/ha) is on record as 5 (Level 5: growth control rate is above 85%). Also, the “Weeding effect … Alopecurus japonicus” value in assay [3] (Dose 30 g/ha) is listed as 5 (Level 5: growth control rate is above 85%). Besides, in assay [4] (Dose 30 g/ha), the “Weeding effect … Setaria viridis” value is 5 (Level 5: growth control rate is above 85%). For the same compound, in assay [5] (Dose 30 g/ha), the “Weeding effect … Eleusine indica” value is 5 (Level 5: growth control rate is above 85%). For the same compound, in assay [6] (Dose 30 g/ha), the “Weeding effect … Digitaria sanguinalis” value is 5 (Level 5: growth control rate is above 85%).

Consider `CC(O/N=C/c1cc(-n2c(=O)cc(C(F)(F)F)n(C)c2=O)c(F)cc1Cl)C(=O)OCc1ccccc1` (stereo not drawn) [Compound 283], for which the “Weeding effect … Echinochloa crusgalli” value in assay [1] (Dose 15 g/ha) was 5 (Level 5: growth control rate is above 85%). In addition, the “Weeding effect … Abutilon theophrasti” value in assay [2] (Dose 15 g/ha) is reported as 5 (Level 5: growth control rate is above 85%). Moreover, in assay [3] (Dose 15 g/ha), the “Weeding effect … Alopecurus japonicus” value is 5 (Level 5: growth control rate is above 85%). Further, the “Weeding effect … Setaria viridis” value in assay [4] (Dose 15 g/ha) is 5 (Level 5: growth control rate is above 85%). The “Weeding effect … Eleusine indica” value in assay [5] (Dose 15 g/ha) is 5 (Level 5: growth control rate is above 85%). Also, in assay [6] (Dose 15 g/ha), the “Weeding effect … Digitaria sanguinalis” value is 5 (Level 5: growth control rate is above 85%).

With `CC(O/N=C/c1cc(-n2c(=O)cc(C(F)(F)F)n(C)c2=O)c(F)cc1Cl)C(=O)OCc1ccccc1F` (stereo not drawn) [Compound 284], the “Weeding effect … Echinochloa crusgalli” value in assay [1] (Dose 15 g/ha) was 5 (Level 5: growth control rate is above 85%). In addition, in assay [2] (Dose 15 g/ha), the “Weeding effect … Abutilon theophrasti” value is reported as 5 (Level 5: growth control rate is above 85%). For the same compound, in assay [3] (Dose 15 g/ha), the “Weeding effect … Alopecurus japonicus” value is on record as 5 (Level 5: growth control rate is above 85%). Further, the “Weeding effect … Setaria viridis” value in assay [4] (Dose 15 g/ha) is 5 (Level 5: growth control rate is above 85%). The “Weeding effect … Eleusine indica” value in assay [5] (Dose 15 g/ha) is on record as 5 (Level 5: growth control rate is above 85%). Besides, the “Weeding effect … Digitaria sanguinalis” value in assay [6] (Dose 15 g/ha) was 5 (Level 5: growth control rate is above 85%).

`CC(O/N=C/c1cc(-n2c(=O)cc(C(F)(F)F)n(C)c2=O)c(F)cc1Cl)C(=O)OCc1cccc(F)c1` (stereo not drawn) [Compound 285]: the “Weeding effect … Echinochloa crusgalli” value in assay [1] (Dose 30 g/ha) is 5 (Level 5: growth control rate is above 85%). In addition, the “Weeding effect … Abutilon theophrasti” value in assay [2] (Dose 30 g/ha) was 5 (Level 5: growth control rate is above 85%). The “Weeding effect … Alopecurus japonicus” value in assay [3] (Dose 30 g/ha) is recorded as 5 (Level 5: growth control rate is above 85%). The “Weeding effect … Setaria viridis” value in assay [4] (Dose 30 g/ha) is listed as 5 (Level 5: growth control rate is above 85%). Also, the “Weeding effect … Eleusine indica” value in assay [5] (Dose 30 g/ha) is given as 5 (Level 5: growth control rate is above 85%). Besides, in assay [6] (Dose 30 g/ha), the “Weeding effect … Digitaria sanguinalis” value is recorded as 5 (Level 5: growth control rate is above 85%).

As for `CC(O/N=C/c1cc(-n2c(=O)cc(C(F)(F)F)n(C)c2=O)c(F)cc1Cl)C(=O)OCc1ccc(F)cc1` (stereo not drawn) [Compound 286], in assay [1] (Dose 30 g/ha), the “Weeding effect … Echinochloa crusgalli” value was 5 (Level 5: growth control rate is above 85%). The “Weeding effect … Abutilon theophrasti” value in assay [2] (Dose 30 g/ha) was 5 (Level 5: growth control rate is above 85%). In addition, in assay [3] (Dose 30 g/ha), the “Weeding effect … Alopecurus japonicus” value was 5 (Level 5: growth control rate is above 85%). In assay [4] (Dose 30 g/ha), the “Weeding effect … Setaria viridis” value is listed as 5 (Level 5: growth control rate is above 85%). In addition, in assay [5] (Dose 30 g/ha), the “Weeding effect … Eleusine indica” value is 5 (Level 5: growth control rate is above 85%). In assay [6] (Dose 30 g/ha), the “Weeding effect … Digitaria sanguinalis” value is 5 (Level 5: growth control rate is above 85%).

With `CC(O/N=C/c1cc(-n2c(=O)cc(C(F)(F)F)n(C)c2=O)c(F)cc1Cl)C(=O)OCc1ccccn1` (stereo not drawn) [Compound 301], the “Weeding effect … Echinochloa crusgalli” value in assay [1] (Dose 15 g/ha) is 5 (Level 5: growth control rate is above 85%). The “Weeding effect … Abutilon theophrasti” value in assay [2] (Dose 15 g/ha) is reported as 5 (Level 5: growth control rate is above 85%). Further, the “Weeding effect … Alopecurus japonicus” value in assay [3] (Dose 15 g/ha) is given as 5 (Level 5: growth control rate is above 85%). The “Weeding effect … Setaria viridis” value in assay [4] (Dose 15 g/ha) is 5 (Level 5: growth control rate is above 85%). For the same compound, the “Weeding effect … Eleusine indica” value in assay [5] (Dose 15 g/ha) was 5 (Level 5: growth control rate is above 85%). Besides, in assay [6] (Dose 15 g/ha), the “Weeding effect … Digitaria sanguinalis” value was 5 (Level 5: growth control rate is above 85%).

As for `CC(O/N=C/c1cc(-n2c(=O)cc(C(F)(F)F)n(C)c2=O)c(F)cc1Cl)C(=O)OCc1cccnc1` (stereo not drawn) [Compound 302], the “Weeding effect … Echinochloa crusgalli” value in assay [1] (Dose 15 g/ha) is listed as 5 (Level 5: growth control rate is above 85%). Moreover, in assay [2] (Dose 15 g/ha), the “Weeding effect … Abutilon theophrasti” value was 5 (Level 5: growth control rate is above 85%). Moreover, the “Weeding effect … Alopecurus japonicus” value in assay [3] (Dose 15 g/ha) is given as 5 (Level 5: growth control rate is above 85%). The “Weeding effect … Setaria viridis” value in assay [4] (Dose 15 g/ha) is 5 (Level 5: growth control rate is above 85%). In assay [5] (Dose 15 g/ha), the “Weeding effect … Eleusine indica” value is given as 5 (Level 5: growth control rate is above 85%). The “Weeding effect … Digitaria sanguinalis” value in assay [6] (Dose 15 g/ha) is 5 (Level 5: growth control rate is above 85%).

`CC(O/N=C/c1cc(-n2c(=O)cc(C(F)(F)F)n(C)c2=O)c(F)cc1Cl)C(=O)OCc1ccncc1` (stereo not drawn) [Compound 303]: the “Weeding effect … Echinochloa crusgalli” value in assay [1] (Dose 15 g/ha) is reported as 5 (Level 5: growth control rate is above 85%). Further, the “Weeding effect … Abutilon theophrasti” value in assay [2] (Dose 15 g/ha) is 5 (Level 5: growth control rate is above 85%). For the same compound, the “Weeding effect … Alopecurus japonicus” value in assay [3] (Dose 15 g/ha) is given as 5 (Level 5: growth control rate is above 85%). In assay [4] (Dose 15 g/ha), the “Weeding effect … Setaria viridis” value is 5 (Level 5: growth control rate is above 85%). In addition, the “Weeding effect … Eleusine indica” value in assay [5] (Dose 15 g/ha) is recorded as 5 (Level 5: growth control rate is above 85%). In addition, the “Weeding effect … Digitaria sanguinalis” value in assay [6] (Dose 15 g/ha) was 5 (Level 5: growth control rate is above 85%).

With `CCOC(=O)C(F)O/N=C/c1cc(-n2c(=O)cc(C(F)(F)F)n(C)c2=O)c(F)cc1Cl` (stereo not drawn) [Compound 313], the “Weeding effect … Echinochloa crusgalli” value in assay [1] (Dose 15 g/ha) is given as 5 (Level 5: growth control rate is above 85%). Moreover, in assay [2] (Dose 15 g/ha), the “Weeding effect … Abutilon theophrasti” value is listed as 5 (Level 5: growth control rate is above 85%). For the same compound, in assay [3] (Dose 15 g/ha), the “Weeding effect … Alopecurus japonicus” value was 5 (Level 5: growth control rate is above 85%). The “Weeding effect … Setaria viridis” value in assay [4] (Dose 15 g/ha) is given as 5 (Level 5: growth control rate is above 85%). Besides, in assay [5] (Dose 15 g/ha), the “Weeding effect … Eleusine indica” value is on record as 5 (Level 5: growth control rate is above 85%). For the same compound, the “Weeding effect … Digitaria sanguinalis” value in assay [6] (Dose 15 g/ha) was 5 (Level 5: growth control rate is above 85%).

Turning to `CCC(O/N=C/c1cc(-n2c(=O)cc(C(F)(F)F)n(C)c2=O)c(F)cc1Cl)C(=O)OC` (stereo not drawn) [Compound 315], the “Weeding effect … Echinochloa crusgalli” value in assay [1] (Dose 15 g/ha) is listed as 5 (Level 5: growth control rate is above 85%). In addition, the “Weeding effect … Abutilon theophrasti” value in assay [2] (Dose 15 g/ha) is 5 (Level 5: growth control rate is above 85%). In assay [3] (Dose 15 g/ha), the “Weeding effect … Alopecurus japonicus” value is 5 (Level 5: growth control rate is above 85%). Also, the “Weeding effect … Setaria viridis” value in assay [4] (Dose 15 g/ha) was 5 (Level 5: growth control rate is above 85%). In addition, in assay [5] (Dose 15 g/ha), the “Weeding effect … Eleusine indica” value is given as 5 (Level 5: growth control rate is above 85%). In assay [6] (Dose 15 g/ha), the “Weeding effect … Digitaria sanguinalis” value is 5 (Level 5: growth control rate is above 85%).

Regarding `CCCC(O/N=C/c1cc(-n2c(=O)cc(C(F)(F)F)n(C)c2=O)c(F)cc1Cl)C(=O)OC` (stereo not drawn) [Compound 316], the “Weeding effect … Echinochloa crusgalli” value in assay [1] (Dose 15 g/ha) is reported as 5 (Level 5: growth control rate is above 85%). The “Weeding effect … Abutilon theophrasti” value in assay [2] (Dose 15 g/ha) was 5 (Level 5: growth control rate is above 85%). Moreover, the “Weeding effect … Alopecurus japonicus” value in assay [3] (Dose 15 g/ha) is given as 5 (Level 5: growth control rate is above 85%). The “Weeding effect … Setaria viridis” value in assay [4] (Dose 15 g/ha) is recorded as 5 (Level 5: growth control rate is above 85%). Further, the “Weeding effect … Eleusine indica” value in assay [5] (Dose 15 g/ha) is 5 (Level 5: growth control rate is above 85%). In addition, in assay [6] (Dose 15 g/ha), the “Weeding effect … Digitaria sanguinalis” value was 5 (Level 5: growth control rate is above 85%).

The record behind these values is patent US20230111310A1, “CARBOXYLIC ACID DERIVATIVE-SUBSTITUTED IMINO ARYL COMPOUND, PREPARATION METHOD THEREFOR, HERBICIDAL COMPOSITION AND USE THEREOF” (Qingdao Kingagroot Chemical Compound Co., Ltd., priority 2020, published 2023).
